For series [1], the system named is Mus musculus. Briefly: Anticonvulsant activity in Swiss albino Mus musculus (mouse) assessed as protection against ScMet-induced myoclonic-clonic seizures at 300 mg/kg, ip measured at 4 hr. The class given is functional, organism-based. Also noted: dose 300 mg/kg.
For series [2], the system named is Mus musculus. Description: Neurotoxicity against Swiss albino Mus musculus (mouse) at 100 mg/kg, ip measured at 4 hr. Type of series: toxicity, organism-based. The following applies: in vivo. Also noted: dose 100 mg/kg, route intraperitoneal.
Series [3] relates to Mus musculus. Briefly: Anticonvulsant activity in Swiss albino Mus musculus (mouse) assessed as protection against ScMet-induced myoclonic-clonic seizures at 100 mg/kg, ip measured at 0.5 hr. Type of series: functional, organism-based. More on the design: dose 100 mg/kg.
In series [4] the test system is Mus musculus. Description: Anticonvulsant activity in Swiss albino Mus musculus (mouse) assessed as protection against ScMet-induced myoclonic-clonic seizures at 300 mg/kg, ip measured at 0.5 hr. Type of series: functional, organism-based. More on the design: dose 300 mg/kg.
Series [5] relates to Mus musculus. Description: Anticonvulsant activity in Swiss albino Mus musculus (mouse) assessed as protection against maximal electric shock-induced tonic-clonic seizures at 300 mg/kg, ip measured at 0.5 hr. The class given is functional, organism-based. More on the design: dose 300 mg/kg.
Series [6] deals with Mus musculus. Briefly: Neurotoxicity against Swiss albino Mus musculus (mouse) at 30 mg/kg, ip measured at 4 hr. The class given is toxicity, organism-based. More on the design: dose 30 mg/kg, route intraperitoneal. The following applies: in vivo.
The subject of series [7] is Mus musculus. Briefly: Neurotoxicity against Swiss albino Mus musculus (mouse) at 100 mg/kg, ip measured at 0.5 hr. Type of series: toxicity, organism-based. More on the design: dose 100 mg/kg, route intraperitoneal. As to conditions: in vivo.
Series [8] deals with Mus musculus. Briefly: Neurotoxicity against Swiss albino Mus musculus (mouse) at 30 mg/kg, ip measured at 0.5 hr. The following applies: in vivo. Type of series: toxicity, organism-based. Also noted: dose 30 mg/kg, route intraperitoneal.
Series [9] has as its system Mus musculus. Briefly: Anticonvulsant activity in Swiss albino Mus musculus (mouse) assessed as protection against maximal electric shock-induced tonic-clonic seizures at 100 mg/kg, ip measured at 4 hr. More on the design: dose 100 mg/kg. Type of series: functional, organism-based.
In series [10] the test system is Mus musculus. Briefly: Neurotoxicity against Swiss albino Mus musculus (mouse) at 300 mg/kg, ip measured at 4 hr. The class given is toxicity, organism-based. Also noted: dose 300 mg/kg, route intraperitoneal. The following applies: in vivo.
Series [11] concerns Mus musculus. Briefly: Anticonvulsant activity in Swiss albino Mus musculus (mouse) assessed as protection against ScMet-induced myoclonic-clonic seizures at 30 mg/kg, ip measured at 0.5 hr. The class given is functional, organism-based. Also noted: dose 30 mg/kg.
Series [12] deals with Mus musculus. Description: Anticonvulsant activity in Swiss albino Mus musculus (mouse) assessed as protection against maximal electric shock-induced tonic-clonic seizures at 300 mg/kg, ip measured at 4 hr. The class given is functional, organism-based. More on the design: dose 300 mg/kg.
Series [13] relates to Mus musculus. Description: Anticonvulsant activity in Swiss albino Mus musculus (mouse) assessed as protection against maximal electric shock-induced tonic-clonic seizures at 30 mg/kg, ip measured at 4 hr. Also noted: dose 30 mg/kg. Type of series: functional, organism-based.
Series [14] deals with Mus musculus. Description: Anticonvulsant activity in Swiss albino Mus musculus (mouse) assessed as protection against ScMet-induced myoclonic-clonic seizures at 30 mg/kg, ip measured at 4 hr. The class given is functional, organism-based. More on the design: dose 30 mg/kg.
Series [15] has as its system Mus musculus. Description: Anticonvulsant activity in Swiss albino Mus musculus (mouse) assessed as protection against maximal electric shock-induced tonic-clonic seizures at 30 mg/kg, ip measured at 0.5 hr. Type of series: functional, organism-based. More on the design: dose 30 mg/kg.
Series [16] has as its system Mus musculus. Briefly: Anticonvulsant activity in Swiss albino Mus musculus (mouse) assessed as protection against ScMet-induced myoclonic-clonic seizures at 100 mg/kg, ip measured at 4 hr. The class given is functional, organism-based. More on the design: dose 100 mg/kg.
The test system of series [17] is Mus musculus. Briefly: Neurotoxicity against Swiss albino Mus musculus (mouse) at 300 mg/kg, ip measured at 0.5 hr. Type of series: toxicity, organism-based. More on the design: dose 300 mg/kg, route intraperitoneal. The following applies: in vivo.
The test system of series [18] is Mus musculus. Description: Anticonvulsant activity in Swiss albino Mus musculus (mouse) assessed as protection against maximal electric shock-induced tonic-clonic seizures at 100 mg/kg, ip measured at 0.5 hr. Type of series: functional, organism-based. More on the design: dose 100 mg/kg.

The source made the active and inactive calls. The calls are words filed in the database; no cut-off is given here.

Consider `CC(C)c1ccccc1NC(=O)CNC(=O)c1ccccc1`, for which the result in the series with Mus musculus [1], with Mus musculus [3], in the series with Mus musculus [4], with Mus musculus [9], with Mus musculus [11] and in the series on Mus musculus [12] was inactive. Moreover, the result in the series with Mus musculus [13], in the series with Mus musculus [14], in the series with Mus musculus [15], in the series on Mus musculus [16] and in the series with Mus musculus [18] was inactive. In addition, the Activity result in the series on Mus musculus [2], with Mus musculus [6], in the series on Mus musculus [7], with Mus musculus [8], with Mus musculus [10] and in the series on Mus musculus [17] was “Non-toxic” throughout. In addition, in the series on Mus musculus [5], the result was Active.

On to `O=C(CNC(=O)c1ccccc1Cl)Nc1ccccc1`, for which the outcome in the series with Mus musculus [1], in the series with Mus musculus [3], in the series with Mus musculus [4], in the series on Mus musculus [5], in the series on Mus musculus [9] and in the series with Mus musculus [11] was inactive. Besides, the result with Mus musculus [13], with Mus musculus [14], in the series with Mus musculus [15], with Mus musculus [16] and with Mus musculus [18] was inactive. The Activity entry in the series on Mus musculus [2], in the series on Mus musculus [6], in the series on Mus musculus [7], in the series on Mus musculus [8], in the series with Mus musculus [10] and in the series with Mus musculus [17] was “Non-toxic” throughout. Besides, the result in the series on Mus musculus [12] was Active.

For the molecule `O=C(CNC(=O)c1ccccc1)Nc1ccccc1Cl`, the outcome with Mus musculus [1], with Mus musculus [3], in the series with Mus musculus [4], in the series with Mus musculus [5], in the series on Mus musculus [9] and with Mus musculus [11] was inactive. Further, the result in the series on Mus musculus [12], in the series with Mus musculus [13], with Mus musculus [14], with Mus musculus [15], in the series on Mus musculus [16] and in the series with Mus musculus [18] was inactive. Also, the Activity entry in the series with Mus musculus [2], with Mus musculus [6], in the series on Mus musculus [7], with Mus musculus [8], with Mus musculus [10] and in the series with Mus musculus [17] was “Non-toxic” throughout.

In the case of `O=C(CNC(=O)c1ccccc1)Nc1ccccc1`, the outcome with Mus musculus [1], in the series on Mus musculus [3], in the series with Mus musculus [4], with Mus musculus [9], in the series on Mus musculus [11] and in the series on Mus musculus [12] was inactive. In addition, the result in the series with Mus musculus [13], with Mus musculus [14], in the series with Mus musculus [15], with Mus musculus [16] and in the series on Mus musculus [18] was inactive. Besides, the Activity entry in the series on Mus musculus [2], with Mus musculus [6], in the series on Mus musculus [7], with Mus musculus [8], in the series with Mus musculus [10] and in the series with Mus musculus [17] was “Non-toxic” in each case. In addition, in the series with Mus musculus [5], the result was Active.

Regarding `Cc1ccc(C(=O)NCC(=O)Nc2ccccc2)cc1`, the result in the series on Mus musculus [1], with Mus musculus [3], with Mus musculus [5], in the series on Mus musculus [9], in the series on Mus musculus [11] and in the series with Mus musculus [12] was inactive. Further, the result in the series on Mus musculus [13], with Mus musculus [14], with Mus musculus [15], with Mus musculus [16] and in the series on Mus musculus [18] was inactive. Moreover, the Activity result with Mus musculus [2], in the series on Mus musculus [6], with Mus musculus [7], in the series with Mus musculus [8], with Mus musculus [10] and in the series on Mus musculus [17] was “Non-toxic” in each case. Further, in the series with Mus musculus [4], the result was Active.

On to `Cc1ccccc1NC(=O)CNC(=O)c1ccccc1`, for which the result in the series with Mus musculus [1], in the series with Mus musculus [3], with Mus musculus [4], with Mus musculus [9], in the series on Mus musculus [11] and in the series with Mus musculus [12] was inactive. Besides, the outcome with Mus musculus [13], in the series on Mus musculus [14], in the series with Mus musculus [15], with Mus musculus [16] and with Mus musculus [18] was inactive. The Activity result in the series with Mus musculus [2], in the series on Mus musculus [6], with Mus musculus [7], in the series with Mus musculus [8], in the series on Mus musculus [10] and in the series on Mus musculus [17] was “Non-toxic” each time. The result in the series with Mus musculus [5] was Active.

Take `COc1ccccc1NC(=O)CNC(=O)c1ccccc1`: the outcome in the series with Mus musculus [1], with Mus musculus [3], with Mus musculus [4], in the series with Mus musculus [5], in the series with Mus musculus [9] and in the series on Mus musculus [11] was inactive. Further, the result in the series on Mus musculus [12], in the series on Mus musculus [13], in the series with Mus musculus [14], in the series on Mus musculus [15], in the series on Mus musculus [16] and in the series with Mus musculus [18] was inactive. Further, the Activity entry with Mus musculus [2], in the series with Mus musculus [6], with Mus musculus [7], in the series with Mus musculus [8], with Mus musculus [10] and in the series with Mus musculus [17] was “Non-toxic” in each case.

For the molecule `O=C(CNC(=O)c1ccc([N+](=O)[O-])cc1)Nc1ccccc1`, the outcome with Mus musculus [1] and in the series with Mus musculus [4] was Active. The Activity result in the series on Mus musculus [2], in the series on Mus musculus [6], with Mus musculus [7], with Mus musculus [8], in the series on Mus musculus [10] and in the series on Mus musculus [17] was “Non-toxic” throughout. Further, the result with Mus musculus [3], with Mus musculus [5], in the series on Mus musculus [9], with Mus musculus [11], in the series on Mus musculus [12] and in the series with Mus musculus [13] was inactive. Besides, the result with Mus musculus [14], in the series with Mus musculus [15], in the series with Mus musculus [16] and with Mus musculus [18] was inactive.

For the molecule `CCc1ccccc1NC(=O)CNC(=O)c1ccccc1`, the outcome in the series with Mus musculus [1], with Mus musculus [3], with Mus musculus [4], in the series with Mus musculus [5], in the series on Mus musculus [9] and in the series on Mus musculus [11] was inactive. In addition, the result with Mus musculus [12], in the series on Mus musculus [13], in the series on Mus musculus [14], in the series with Mus musculus [15], in the series on Mus musculus [16] and with Mus musculus [18] was inactive. Further, the Activity entry with Mus musculus [2], in the series with Mus musculus [6], in the series on Mus musculus [7], in the series with Mus musculus [8], in the series on Mus musculus [10] and in the series with Mus musculus [17] was “Non-toxic” throughout.

(Values after ChEMBL document CHEMBL3045887, “Synthesis and anticonvulsant activity of some N-(benzoyl)glycinanilide derivatives” (Med Chem Res, 2013).)
